Test results as given in BindingDB's records for doi:10.1016/j.bmcl.2010.12.016 (Amira Pharmaceuticals, 2011).

Assays:
[1] = Antagonist activity against CRTh2 receptor in human eosinophils assessed as cell shape change by flow cytometry
[2] = Antagonist activity against CRTh2 receptor in human eosinophils assessed as cell shape change after 4 hrs by flow cytometry

Row | SMILES | IC50 [1] | IC50 [2]
1 | CCN(Cc1cc(-c2ccc(F)cn2)ccc1-c1cc(CC(=O)O)ccc1OC)C(=O)C1CC1 [2-(2'-((N-ethylcyclopropanecarboxamido)methyl)-4'-(5-fluoropyridin-2-yl)-6-methoxybiphenyl-3-yl)acetic acid] | 23 nM | 
2 | CCN(Cc1cc(-c2ncc(OC)cn2)ccc1-c1cc(CC(=O)O)ccc1OC)C(=O)C1CC1 [2-(2'-((N-ethylcyclopropanecarboxamido)methyl)-6-methoxy-4'-(5-methoxypyrimidin-2-yl)biphenyl-3-yl)acetic acid] | 18 nM | 
3 | CCN(Cc1cc(-c2cnc3ccccc3c2)ccc1-c1cc(CC(=O)O)ccc1OC)C(=O)C1CC1 [2-(2'-((N-ethylcyclopropanecarboxamido)methyl)-6-methoxy-4'-(quinolin-3-yl)biphenyl-3-yl)acetic acid] | 12 nM | 

Stronger by IC50 [1], values ahead:

Row | IC50 [1] | IC50 [2] | SMILES
4 | 4 nM |  | CCN(Cc1cc(-c2cnn(C)c2)ccc1-c1cc(CC(=O)O)ccc1OC)C(=O)C1CC1 [2-(2'-((N-ethylcyclopropanecarboxamido)methyl)-6-methoxy-4'-(1-methyl-1H-pyrazol-4-yl)biphenyl-3-yl)acetic acid]
5 | 5 nM | 1.7 nM | CCOc1ccc(-c2ccc(-c3cc(CC(=O)O)ccc3OC)c(CN(CC)C(=O)C3CC3)c2)cn1 [Sodium [2'-[(cyclopropanecarbonyl-ethyl-amino)-methyl]-4'-(6-ethoxy-pyridin-3-yl)-6-methoxy-biphenyl-3-yl]-acetate]
